From patent EP1581477B1, “CYCLOALKENE DICARBOXYLIC ACID COMPOUNDS AS ANTI-INFLAMMATORY, IMMUNOMODULATORY AND ANTI-PROLIFERATORY AGENTS” (4SC AG, priority 2002, dated 2004)

molecular target: T1, human DHODH (Homo sapiens, UniProt Q02127); assay: Inhibition assay of DHODH activity (spectrophotometric, 2,6-dichloroindophenol reduction); type: biochemical; settings: recombinant human DHODH; 50 mM TrisHCl, pH 8,0, 30°C; absorption at 600 nm
T1 construct: Prof; M. Löffler, Marburg, Germany (gift)
Description: 3. Inhibition Assay of DHODH activity
The standard assay mixture contained 50 µM decyclo ubichinone, 100 µM dihydroorotate, 60 µM 2,6-dichloroindophenol, as well as 20 mU DHODH The volume activity of the recombinant enzyme used was 30 U/ml. Measurements were conducted in 50 mM TrisHCl (150 mM KCI, 0,1% Triton X-100, pH 8,0) at 30°C in a final volume of 1 ml. The components were mixed, and the reaction was started by adding dihydroorotate. The course of reaction was followed by spectrophotometrically measuring the decrease in absorption at 600 nm for 2 min.
Inhibitory studies were conducted in a standard assay with additional variable amounts of inhibitor.
These investigations were carried out with recombinant human as well as with recombinant murine DHODH provided by Prof. M. Löffler, Marburg, Germany [M. Löffler, Chem. Biol. Interact. 124, (2000), 61-76].

T1 sequence (Q02127 whole entry): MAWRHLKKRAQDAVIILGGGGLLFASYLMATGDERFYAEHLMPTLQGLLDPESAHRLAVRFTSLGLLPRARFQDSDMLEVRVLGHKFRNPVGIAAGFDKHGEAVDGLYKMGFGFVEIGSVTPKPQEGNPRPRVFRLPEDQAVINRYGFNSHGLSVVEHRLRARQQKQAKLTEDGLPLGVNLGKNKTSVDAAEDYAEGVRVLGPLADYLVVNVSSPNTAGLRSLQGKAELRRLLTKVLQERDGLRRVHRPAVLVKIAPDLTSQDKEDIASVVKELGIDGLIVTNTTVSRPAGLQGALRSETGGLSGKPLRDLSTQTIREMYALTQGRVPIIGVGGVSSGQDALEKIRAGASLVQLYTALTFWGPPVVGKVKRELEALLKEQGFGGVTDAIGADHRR

| Molecule | IC50 [nM] |
| --- | --- |
| 2-(1',3'di-methoxy-3,5-difluoro-biphenyl-4-ylcarbamoyl)-3-hydroxy-cyclopent-1-enecarboxylic acid [Example 9] | < 5000 |
| 2-(1',3'di-methoxy-3,5-difluoro-biphenyl-4-ylcarbamoyl)-5-hydroxy-cyclopent-1-enecarboxylic acid [Example 10] | < 5000 |
| COc1cccc(-c2ccc(NC(=O)C3=C(C(=O)O)C(C(=O)O)CC3)c(F)c2)c1 (stereo not drawn) [Example 1, 3-(3-Fluoro-3'-methoxy-biphenyl-4-ylcarbamoyl)-cyclopent-2-ene-1,2-dicarboxylic acid] | > 5000 |
| COc1cccc(-c2ccc(NC(=O)C3=C(C(=O)O)CCC3C(=O)O)c(F)c2)c1 (stereo not drawn) [Example 2, 2-(3-Fluoro-3'-methoxy-biphenyl-4-ylcarbamoyl)-cyclopent-1-ene-1,3-dicarboxylic acid] | > 5000 |
| COC(=O)C1=C(C(=O)Nc2ccc(-c3cccc(OC)c3)cc2F)CCC1 [Example 3, 2-(3-Fluoro-3'-methoxy-biphenyl-4-ylcarbamoyl)-cyclopent-1-enecarboxylic acid methyl ester] | > 5000 |
| O=C(O)C1=C(C(=O)Nc2c(F)c(F)c(-c3cccc(OC(F)(F)F)c3)c(F)c2F)C(O)CC1 (stereo not drawn) [Example 5, 3-Hydroxy-2-(2,3,5,6-tetrafluoro-3'-trifluoromethoxy-biphenyl-4-ylcarbamoyl)-cyclopent-1-enecarboxylic acid] | < 1000 |
| O=C(O)C1=C(C(=O)Nc2c(F)c(F)c(-c3cccc(OC(F)(F)F)c3)c(F)c2F)CCC1O (stereo not drawn) [Example 6, 5-Hydroxy-2-(2,3,5,6-tetrafluoro-3'-trifluoromethoxy-biphenyl-4-ylcarbamoyl)-cyclopent-1-enecarboxylic acid] | < 1000 |
| CCOc1cccc(-c2cc(F)c(NC(=O)C3=C(C(=O)O)CCC3O)c(F)c2)c1 (stereo not drawn) [Example 7, 2-(3'-Ethoxy-3,5-difluoro-biphenyl-4-ylcarbamoyl)-3-hydroxy-cyclopent-1-enecarboxylic acid] | < 1000 |
| CCOc1cccc(-c2cc(F)c(NC(=O)C3=C(C(=O)O)C(O)CC3)c(F)c2)c1 (stereo not drawn) [Example 8, 2-(3'-Ethoxy-3,5-difluoro-biphenyl-4-ylcarbamoyl)-5-hydroxy-cyclopent-1-enecarboxylic acid] | < 1000 |
| O=C(O)C1=C(C(=O)Nc2c(F)cc(-c3ccccc3F)cc2F)C(O)CC1 (stereo not drawn) [Example 11, 3-Hydroxy-2-(3,5,2'-trifluoro-biphenyl-4-ylcarbamoyl)-cyclopent-1-enecarboxylic acid] | < 1000 |
| COc1ccccc1-c1ccc(NC(=O)C2=C(C(=O)O)CCC2O)cc1Cl (stereo not drawn) [Example 13, 2-(2-Chloro-2'-methoxy-biphenyl-4-ylcarbamoyl)-3-hydroxy-cyclopent-1-enecarboxylic acid] | < 1000 |
| COc1ccccc1-c1ccc(NC(=O)C2=C(C(=O)O)C(O)CC2)cc1Cl (stereo not drawn) [Example 14, 2-(2-Chloro-2'-methoxy-biphenyl-4-ylcarbamoyl)-5-hydroxy-cyclopent-1-enecarboxylic acid] | < 1000 |
| O=C(O)C1=C(C(=O)Nc2c(F)cc(-c3ccccc3Cl)cc2F)C(O)CC1 (stereo not drawn) [Example 15, 2-(2'-Chloro-3,5-difluoro-biphenyl-4-ylcarbamoyl)-3-hydroxy-cyclopent-1-enecarboxylic acid] | < 1000 |
| O=C(O)C1=C(C(=O)Nc2c(F)cc(-c3ccccc3Cl)cc2F)CCC1O (stereo not drawn) [Example 16, 2-(2'-Chloro-3,5-difluoro-biphenyl-4-ylcarbamoyl)-5-hydroxy-cyclopent-1-enecarboxylic acid] | < 1000 |
| COc1cccc(-c2ccc(NC(=O)C3=C(C(=O)O)CCC3O)c(F)c2)c1 (stereo not drawn) [Example 17, 2-(3-Fluoro-3'-methoxy-biphenyl-4-ylcarbamoyl)-3-hydroxy-cyclopent-1-enecarboxylic acid] | < 1000 |
